Our source for the IC50 values is US9522920B2, “Bromodomain inhibitors and uses thereof” (Constellation Pharmaceuticals, Inc., priority 2010, dated 2016).

Each structure is given as a SMILES string. Where only a bound is given, the exact number is not on record here.

In one experiment the target is T1, BRD4(BD1) (Homo sapiens, UniProt O60885).
T1 construct: His; made in house
The experiment is described as follows: BRD4 AlphaLisa binding assay (Alphascreen). Particulars: Table 14; BRD4 AlphaLisa Binding Assay; read-out: Alpha screen. In outline: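 BRD4(BD1) (30 nM) incubated 20 min at room temperature with peptide (200 nM) and compound in 40 mM HEPES pH 7.0, 40 mM NaCl, 1 mM DTT, 0.01% BSA, 0.008% Brij-35, 1.2% DMSO.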

In the next experiment the test system is MYC mRNA. The experiment is described as follows: cMyc RNA quantification assay (QuantiGene) in MV4:11 cells. It counts as cell-based. Particulars: Homo sapiens, MV4-11, 4 h, Table 14, MV4:11 cells, read-out: MYC-MV411. How it is done:
MV4:11 (AML) or Raji (Burkitt's lymphoma) cells were seeded in a 96-well plate and incubated in the presence of various concentrations of compounds for 4 h. Relative mRNA levels were quantitated by using QuantiGene 2.0 assay (Affymetrix) according to the manufacturer's recommendation. Signals were detected by using an Envision plate reader (Perkin-Elmer). Biological duplicates were averaged and normalized to vehicle (DMSO) control to calculate percent MYC mRNA levels.

The next experiment deals with IL-6 secretion. Put plainly: Cell-based IL-6 quantification assay (ELISA, Mesoscale) in LPS-stimulated THP-1 cells. The settings on record: Homo sapiens, THP-1, 16 h, Table 14; THP-1 cells, LPS, 16 h; read-out: IL6. In outline: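 THP-1 cells stimulated with LPS at 4 μg/mL final and exposed to compounds for 16 h. Supernatant IL-6 measured by Mesoscale ELISA and normalized to CellTiter-Glo cell content. Percent inhibition derived from that ratio.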
(In an ELISA, binding on a coated surface is turned into a signal by an enzyme label.)

For `Cc1noc2c1-c1ccc(-c3ccc(N)nc3)cc1C(c1ccc(F)cc1)=N[C@H]2CC(N)=O` [Compound 216], the IC50 on BRD4(BD1), with MYC mRNA and with IL-6 secretion was below 500 nM each time.
`COc1ccc2c(c1)C(c1ccc(Cl)cc1)=N[C@@H](CC(N)=O)c1onc(C)c1-2` [Compound 217, 2-((4S)-6-(4-chlorophenyl)-8-methoxy-1-methyl-4H-benzo[c]isoxazolo[4,5-e]azepin-4-yl)acetamide]: the IC50 on BRD4(BD1), in the experiment on MYC mRNA and in the experiment on IL-6 secretion was below 500 nM throughout.
Regarding `Cc1noc2c1-c1ccccc1C(c1ccc(Cl)cc1)=NC2C(N)=O` (stereo not drawn) [Compound 218, 6-(4-chlorophenyl)-1-methyl-4H-benzo[c]isoxazolo[4,5-e]azepine-4-carboxamide], the IC50 on BRD4(BD1), with MYC mRNA and in the experiment with IL-6 secretion was above 1000 nM throughout.
For the compound `COc1ccc2c(n1)-c1c(C)noc1CN=C2c1ccc(Cl)cc1` [Compound 219, 5-(4-Chlorophenyl)-2-methoxy-10-methyl-7H-isoxazolo[5,4-c]pyrido[2,3-e]azepine], the IC50 at BRD4(BD1) was above 1000 nM; in the experiment with MYC mRNA it was 500 to 1000 nM; in the experiment with IL-6 secretion, above 1000 nM.
Turning to `Cc1noc2c1-c1[nH]c(=O)ccc1C(c1ccc(Cl)cc1)=NC2` [Compound 220, 5-(4-Chlorophenyl)-10-methyl-1H-isoxazolo[5,4-c]pyrido[2,3-e]azepin-2(7H)-one], the IC50 at BRD4(BD1), in the experiment on MYC mRNA and in the experiment with IL-6 secretion was above 1000 nM in each case.
Regarding `CNc1ccc2c(n1)-c1c(C)noc1CN=C2c1ccc(Cl)cc1` [Compound 221, 5-(4-Chlorophenyl)-N,10-dimethyl-7H-isoxazolo[5,4-c]pyrido[2,3-e]azepin-2-amine], the IC50 on BRD4(BD1), in the experiment on MYC mRNA and with IL-6 secretion was above 1000 nM in each case.
On to `Cc1noc2c1-c1ccnc(N)c1C(c1ccc(Cl)cc1)=N[C@H]2CC(N)=O` [Compound 222, 2-((4S)-7-Amino-6-(4-chlorophenyl)-1-methyl-4H-isoxazolo[5,4-c]pyrido[4,3-e]azepin-4-yl)acetamide], for which the IC50 at BRD4(BD1), in the experiment with MYC mRNA and with IL-6 secretion was below 500 nM throughout.
As for `Cc1noc2c1-c1ccccc1C(c1ccc(Cl)cc1)=N[C@H]2CC(C)(C)O` [Compound 223, 1-((4S)-6-(4-chlorophenyl)-1-methyl-4H-benzo[c]isoxazolo[4,5-e]azepin-4-yl)-2-methylpropan-2-ol], the IC50 on BRD4(BD1), in the experiment with MYC mRNA and in the experiment on IL-6 secretion was above 1000 nM in each case.
`Cc1noc2c1-c1ccc(C#N)cc1C(c1ccc(Cl)cc1)=N[C@H]2CC(N)=O` [Compound 224]: the IC50 on BRD4(BD1), in the experiment with MYC mRNA and in the experiment on IL-6 secretion was below 500 nM throughout.
Regarding `CCOC(=O)NC1N=C(c2ccc(Cl)cc2)c2ccccc2-c2c(C)noc21` (stereo not drawn) [Compound 225, ethyl (6-(4-chlorophenyl)-1-methyl-4H-benzo[c]isoxazolo[4,5-e]azepin-4-yl)carbamate], the IC50 on BRD4(BD1), in the experiment with MYC mRNA and in the experiment with IL-6 secretion was below 500 nM in each case.
For the compound `Cc1noc2c1-c1ccccc1C(c1ccc(C3(O)CC3)cc1)=N[C@H]2CC(N)=O` [Compound 226], the IC50 at BRD4(BD1), in the experiment with MYC mRNA and with IL-6 secretion was below 500 nM each time.
Take `Cc1noc2c1-c1nc(Cl)ccc1C(c1ccc(Cl)cc1)=NC2` [Compound 227, 2-Chloro-5-(4-chlorophenyl)-10-methyl-7H-isoxazolo[5,4-c]pyrido[2,3-e]azepine]: the IC50 at BRD4(BD1), in the experiment with MYC mRNA and with IL-6 secretion was above 1000 nM each time.
With `Cc1noc2c1-c1nc(N)ccc1C(c1ccc(Cl)cc1)=NC2` [Compound 228, 5-(4-Chlorophenyl)-10-methyl-7H-isoxazolo[5,4-c]pyrido[2,3-e]azepin-2-amine], the IC50 at BRD4(BD1), in the experiment on MYC mRNA and with IL-6 secretion was above 1000 nM each time.
As for `Cc1noc2c1-c1ccnc(Oc3ccccc3)c1C(c1ccc(Cl)cc1)=NC2` [Compound 229, 6-(4-Chlorophenyl)-1-methyl-7-phenoxy-4H-isoxazolo[5,4-c]pyrido[4,3-e]azepine], the IC50 at BRD4(BD1), with MYC mRNA and with IL-6 secretion was above 1000 nM each time.
Regarding `Cc1noc2c1-c1ccc(Cl)cc1C(c1ccc(F)cc1)=N[C@H]2C` [Compound 230], the IC50 on BRD4(BD1) is below 500 nM; in the experiment with MYC mRNA it was 500 to 1000 nM; with IL-6 secretion, below 500 nM.
With `Cc1noc2c1-c1ccc(-c3ccc(N)nc3)cc1C(c1ccc(F)cc1)=N[C@H]2C` [Compound 231], the IC50 at BRD4(BD1), in the experiment on MYC mRNA and in the experiment on IL-6 secretion was below 500 nM each time.
Turning to `Cc1noc2c1-c1ccccc1C(c1ccc(C(C)(C)N)cc1)=N[C@H]2CC(N)=O` [Compound 233], the IC50 is below 500 nM at BRD4(BD1), 500 to 1000 nM with MYC mRNA and 500 to 1000 nM in the experiment with IL-6 secretion.
For `Cc1noc2c1-c1ccc(-c3ccc(C(=O)O)cc3)cc1C(c1ccc(F)cc1)=N[C@H]2CC(N)=O` [Compound 234], the IC50 is below 500 nM on BRD4(BD1), 500 to 1000 nM in the experiment on MYC mRNA and 500 to 1000 nM in the experiment with IL-6 secretion.
In the case of `Cc1noc2c1-c1ccccc1C(c1ccc(C(C)(C)O)cc1)=N[C@H]2CC(N)=O` [Compound 235], the IC50 on BRD4(BD1), in the experiment with MYC mRNA and with IL-6 secretion was below 500 nM in each case.
As to `Cc1noc2c1-c1sc(C)c(C)c1C(c1ccc(C(C)(C)O)cc1)=NC2CC(N)=O` (stereo not drawn) [Compound 236], the IC50 at BRD4(BD1), in the experiment with MYC mRNA and with IL-6 secretion was below 500 nM each time.
On to `Cc1noc2c1-c1ccc(-c3ccc(C(=O)O)cc3)cc1C(c1ccc(F)cc1)=N[C@H]2C` [Compound 237], for which the IC50 on BRD4(BD1), in the experiment on MYC mRNA and in the experiment with IL-6 secretion was below 500 nM in each case.
Regarding `Cc1noc2c1-c1ccccc1C(c1ccc(F)cc1)=NC2C(F)(F)F` (stereo not drawn) [Compound 238, 6-(4-fluorophenyl)-1-methyl-4-(trifluoromethyl)-4H-benzo[c]isoxazolo[4,5-e]azepine], the IC50 on BRD4(BD1), in the experiment with MYC mRNA and in the experiment with IL-6 secretion was above 1000 nM throughout.
As to `Cc1noc2c1-c1ccc(O)cc1C(c1ccc(Cl)cc1)=N[C@H]2CC(N)=O` [Compound 239, 2-((4S)-6-(4-chlorophenyl)-8-hydroxy-1-methyl-4H-benzo[c]isoxazolo[4,5-e]azepin-4-yl)acetamide], the IC50 on BRD4(BD1), in the experiment on MYC mRNA and in the experiment on IL-6 secretion was below 500 nM in each case.
With `Cc1noc2c1-c1ccc(Cl)nc1C(c1ccc(Cl)cc1)=NC2` [Compound 240, 8-Chloro-6-(4-chlorophenyl)-1-methyl-4H-isoxazolo[5,4-c]pyrido[3,2-e]azepine], the IC50 at BRD4(BD1), in the experiment with MYC mRNA and with IL-6 secretion was above 1000 nM in each case.
Take `CNc1ccc2c(n1)C(c1ccc(Cl)cc1)=NCc1onc(C)c1-2` [Compound 241, 6-(4-Chlorophenyl)-N,1-dimethyl-4H-isoxazolo[5,4-c]pyrido[3,2-e]azepin-8-amine]: the IC50 on BRD4(BD1), with MYC mRNA and in the experiment on IL-6 secretion was below 500 nM each time.
As for `COc1ccc2c(n1)C(c1ccc(Cl)cc1)=NCc1onc(C)c1-2` [Compound 242, 6-(4-Chlorophenyl)-8-methoxy-1-methyl-4H-isoxazolo[5,4-c]pyrido[3,2-e]azepine], the IC50 was 500 to 1000 nM on BRD4(BD1), above 1000 nM in the experiment with MYC mRNA and above 1000 nM with IL-6 secretion.
For the compound `Cc1noc2c1-c1ccc(=O)[nH]c1C(c1ccc(Cl)cc1)=NC2` [Compound 243, 6-(4-Chlorophenyl)-1-methyl-4H-isoxazolo[5,4-c]pyrido[3,2-e]azepin-8(7H)-one], the IC50 at BRD4(BD1) is 500 to 1000 nM; in the experiment with MYC mRNA it was above 1000 nM; in the experiment on IL-6 secretion, above 1000 nM.
For `CCNC(=O)NC1N=C(c2ccc(Cl)cc2)c2ccccc2-c2c(C)noc21` (stereo not drawn) [Compound 245, 1-(6-(4-chlorophenyl)-1-methyl-4H-benzo[c]isoxazolo[4,5-e]azepin-4-yl)-3-ethylurea], the IC50 at BRD4(BD1), with MYC mRNA and in the experiment with IL-6 secretion was below 500 nM throughout.
Consider `Cc1noc2c1-c1ccc(=O)n(C)c1C(c1ccc(Cl)cc1)=NC2` [Compound 246, 6-(4-Chlorophenyl)-1,7-dimethyl-4H-isoxazolo[5,4-c]pyrido[3,2-e]azepin-8(7H)-one], for which the IC50 was 500 to 1000 nM on BRD4(BD1), above 1000 nM in the experiment on MYC mRNA and above 1000 nM in the experiment with IL-6 secretion.
`Cc1noc2c1-c1ccc(N3CCCC3)nc1C(c1ccc(Cl)cc1)=NC2` [Compound 247, 6-(4-Chlorophenyl)-1-methyl-8-(pyrrolidin-1-yl)-4H-isoxazolo[5,4-c]pyrido[3,2-e]azepine]: the IC50 on BRD4(BD1) is below 500 nM; in the experiment on MYC mRNA, 500 to 1000 nM; with IL-6 secretion it was below 500 nM.
Regarding `CCOc1ccc2c(c1)C(c1ccc(Cl)cc1)=N[C@@H](CC(N)=O)c1onc(C)c1-2` [Compound 248], the IC50 on BRD4(BD1), in the experiment with MYC mRNA and in the experiment with IL-6 secretion was below 500 nM each time.
